The source of these data is paper PMC8634903, “Effects of Dicyclohexyl Phthalate Exposure on PXR Activation and Lipid Homeostasis in Mice” (Environmental Health Perspectives, 2021).

The target in data set [1] is T1, pregnane X receptor (hPXR) (Homo sapiens, UniProt O75469).
T1 construct: gene NR1I2
T1 sequence (O75469 130-434 limits assumed): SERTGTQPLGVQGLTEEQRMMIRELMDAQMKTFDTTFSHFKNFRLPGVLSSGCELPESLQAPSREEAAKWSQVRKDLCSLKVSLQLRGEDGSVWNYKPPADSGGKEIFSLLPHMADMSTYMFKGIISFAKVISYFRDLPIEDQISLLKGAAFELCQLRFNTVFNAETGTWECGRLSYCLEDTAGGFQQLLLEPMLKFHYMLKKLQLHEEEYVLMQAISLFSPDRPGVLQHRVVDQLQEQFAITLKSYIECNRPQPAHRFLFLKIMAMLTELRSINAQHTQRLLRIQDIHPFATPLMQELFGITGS
Kind of data set: LanthaScreen TR-FRET competitive binding assay with recombinant GST-hPXR LBD (positive control); also cell reporter assay.

For data set [2], the target named is T1, pregnane X receptor (hPXR). Kind of data set: LanthaScreen TR-FRET competitive binding assay with recombinant GST-hPXR LBD; also cell reporter assay (EC50 […]). On the technique in general: TR-FRET usually uses a lanthanide donor and a delayed reading to cut background.
The target of data set [3] is T2, rat pregnane X receptor (rPXR) (Rattus norvegicus, UniProt Q9R1A7).
T2 construct: gene Nr1i2
T2 sequence (Q9R1A7 143-431 limits assumed): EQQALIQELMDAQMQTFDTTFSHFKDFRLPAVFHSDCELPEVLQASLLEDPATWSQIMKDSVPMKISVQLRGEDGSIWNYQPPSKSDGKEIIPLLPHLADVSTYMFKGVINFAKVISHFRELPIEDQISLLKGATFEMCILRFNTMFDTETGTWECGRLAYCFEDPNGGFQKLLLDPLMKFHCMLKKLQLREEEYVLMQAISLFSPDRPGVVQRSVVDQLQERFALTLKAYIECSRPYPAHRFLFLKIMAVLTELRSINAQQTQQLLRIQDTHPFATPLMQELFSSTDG
Kind of data set: GAL4-LBD luciferase reporter assay in LS180 cells at […] DCHP. The class given is cell-based. For orientation: In a reporter assay the amount or activity of a reporter protein is the signal.

With `CCCCC(CC)COC(=O)c1ccccc1C(=O)OCC(CC)CCCC` (stereo not drawn) [DEHP, di(2-ethylhexyl) phthalate], the “LanthaScreen TR-FRET competitive binding assay with recombinant GST-hPXR LBD (po)” value in data set [1] is “inhibition of FRET between fluorescein-labeled PXR ligand and recombinant GST-PXR LBD by DCHP and DEHP”.
Regarding `O=C(OC1CCCCC1)c1ccccc1C(=O)OC1CCCCC1` [DCHP, dicyclohexyl phthalate], the IC50 in data set [2] amounted to 7.3 µM. Moreover, the “GAL4-LBD luciferase reporter assay in LS180 cells at 10 μM DCHP” value in data set [3] was “DCHP activated three forms of PXR including hPXR, mPXR, and rat PXR (rPXR)”.

The term IC50 denotes the concentration at which inhibition is half-maximal.
